Results from patent publication US20130295143A1, “ELECTROPROCESSING OF ACTIVE PHARMACEUTICAL INGREDIENTS” (Massachusetts Institute of Technology, priority 2012, published 2013).
Entries after “also recorded” stand apart in the source; their conditions may differ.

How the values were obtained:
Type in all cases: physicochemical
[1] = USP dissolution test of compressed electrospun tablets vs compressed powder tablets; conditions: USP apparatus II, 50 rpm, 37° C., 900 mL; 0.1 N HCl for ABZ, 0.1 M Phosphate buffer for FAM; 150 mg 9 mm tablets, 1:2 API:PVP
Experimental: Powder tablets were prepared by weighing out 50 mg API powder and 100 mg PVP powder, mixing for 1 min, and pressing into 9 mm tablets using the same press with the same insertion depth. The electrospun tablets were compared to the compressed powder tablets for analysis. […] Dissolution was performed using a Varian VK 7025 dissolution bath (Agilent, Santa Clara, Calif.) and a Cary 50 Bio UV spectrophotometer (Agilent, Santa Clara, Calif.). For ABZ the standard USP methods were used with 900 mL 0.1 N HCl media, apparatus II, 50 rpm paddle speed and a temperature of 37° C. For FAM standard USP methods were used with 900 mL 0.1 M Phosphate buffer media, apparatus II, 50 rpm paddle speed, and a temperature of 37° C. Measurements were made every minute for 90 minutes by probes inserted in the bath and connected to the spectrophotometer by fiber optic cables.

[2] = Polymorphism of API before and after electrospinning (XRD, DSC); conditions: free-surface electrospinning from PVP/ethanol suspension
Experimental: Scanning electron microscopy (SEM) was used to analyze the morphology of the fibers. A Quorum Technologies SC7640 high resolution gold/palladium sputter coater was used to coat the samples, and a JEOL 6060 SEM at 5 kV operating voltage was used to obtain images. Both X-ray diffraction (XRD) and differential scanning calorimetry (DSC) were used to confirm the presence of crystals and analyze the polymorph present in the electrospun fibers. XRD was performed on a PANalytical X′Pert Pro with a reflection-transmission spinner PW 3064/60 sample stage and a Cu X-ray source with a 1.54 Å wavelength. DSC was performed on a TA DSC Q2000 instrument using a 2-6 mg sample in an aluminum sample pan. The materials were heated at 10° C./min to 250° C. and 200° C. for ABZ and FAM, respectively.

[3] = Drug loading in electrospun fibers by UV-vis spectroscopy; conditions: 1:2 API:PVP, nominal API loading 33 wt %; average of three measurements
Experimental: In order to determine the actual drug loading in the electrospun fibers, samples were analyzed with a Perkin-Elmer (Waltham, Mass.) double-beam Lambda25 UV-vis spectrophotometer. A standard curve was prepared for ABZ in methanol for concentrations from 0.005 mg/mL to 0.05 mg/mL at an absorbance of 295 nm and for FAM in methanol for concentrations from 0.002 mg/mL to 0.035 mg/mL at an absorbance of 286 nm. […] A known mass of electrospun mat was dissolved in a known volume of methanol and diluted such that the expected concentration of API fell within the concentration ranges covered by the standard curves. From the resulting measured concentration, the mass of API in the original mat sample, and thus the weight percent API in the electrospun mat was calculated. Three measurements were made per API and were averaged to give the reported value.

SMILES | dissolution amount, electrospun formulation relative to compressed powder tablet [1] | polymorphism of the API through the electrospinning process [2] | average loading of API in the electrospun fibers [3] [wt %]
CCCSc1ccc2nc(NC(=O)OC)[nH]c2c1 [ABZ, albendazole] | more than twice the dissolution amount | retained their polymorphism throughout processing; also recorded: not significantly affected | 31
NC(N)=Nc1nc(CSCCC(N)=NS(N)(=O)=O)cs1 [FAM, famotidine] | more than twice the dissolution amount | retained their polymorphism throughout processing | 26
